Converted amounts (≈) assume the structure as drawn. “And” between values parts separate entries of the source, which are not always exact repeats. Identical values can stand only once. Like-named read-outs stand apart in the source and are kept apart here.
Columns and labels:
[1] = test system: methicilin resistant Staphylococcus aureus H 5996/08; test: In vitro antibacterial susceptibility testing (broth microdilution)
[2] = test system: Mycobacterium avium MA CNCTC My 330/88; test: In vitro antimycobacterial evaluation; format: cell-based; conditions: IC90 value
[3] = test system: Mycobacterium tuberculosis MTB CNCTC My 331/88; test: In vitro antimycobacterial evaluation; format: cell-based; conditions: IC90 value
[4] = test system: Staphylococcus epidermidis H 6966/08; test: In vitro antibacterial susceptibility testing (broth microdilution); conditions: read-out: MIC SE
[5] = test system: Trichophyton mentagrophytes 445; test: In vitro antifungal susceptibility testing (broth microdilution); format: cell-based
[6] = test system: Mycobacterium kansasii MK CNCTC My 235/80; test: In vitro antimycobacterial evaluation; format: cell-based; conditions: IC90 value
[7] = Lipophilicity determination by RP-HPLC (capacity factor k / log k); format: physicochemical; conditions: C18 column, MeOH 70% / H2O 30%, isocratic
Method: Hydrophobicities (log P/Clog P) of compounds 8 and 9 were calculated using two commercially available programs (ChemOffice Ultra 10.0 and ACD/LogP) and measured by means of RP-HPLC determination of capacity factors k with subsequent calculation of log k. The procedure was performed under isocratic conditions with methanol as an organic modifier in the mobile phase using an end-capped non-polar C18 stationary RP column. The results are shown in Table 1 and illustrated in Figure 1.
A Waters Alliance 2695 XE HPLC separation module and a Waters Photodiode Array Detector 2996 (Waters Corp., Milford, MA, USA) were used. A Symmetry® C18 5 μm, 4.6 × 250 mm, Part No. WAT054275 (Waters Corp., Milford, MA, USA) chromatographic column was used. The HPLC separation process was monitored by Empower™ 2 Chromatography Data Software, Waters 2009 (Waters Corp., Milford, MA, USA). A mixture of MeOH p.a. (70%) and H2O-HPLC – Mili-Q Grade (30%) was used as a mobile phase. The total flow of the column was 1.0 mL/min, injection volume, 30 μL, column temperature, 30 °C and sample temperature, 10 °C. The detection wavelength of 210 nm was chosen. The KI methanolic solution was used for the dead time (tD) determination. Retention times (tR) were measured in minutes. The capacity factors k were calculated using the Empower™ 2 Chromatography Data Software according to formula k = (tR - tD)/tD, where tR is the retention time of the solute, whereas tD denotes the dead time obtained using an unretained analyte. Log k, calculated from the capacity factor k, is used as the lipophilicity index converted to log P scale.

[8] = test system: Candida tropicalis 156; test: In vitro antifungal susceptibility testing (broth microdilution); format: cell-based; conditions: M27-A2 for yeasts, IC80 value
[9] = test system: Staphylococcus aureus CCM 4516/08; test: In vitro antibacterial susceptibility testing (broth microdilution); conditions: read-out: MIC SA
[10] = test system: Enterococcus sp. J 14365/08; test: as above; conditions: read-out: MIC EF
[11] = 72h, M38-A for moulds, IC50 value, read-out: MIC TM
[12] = 120h, M38-A for moulds, IC50 value, read-out: MIC TM

Structure (SMILES)	MIC ([1]; MRSA, 24 h, read-out: MIC MRSA) [µM]	MIC ([1]; MRSA, 48 h, read-out: MIC MRSA) [µM]	MIC ([2]; 14h) [µM]	MIC ([2]; 21h) [µM]	MIC ([3]; 14h) [µM]	MIC ([3]; 21h) [µM]	MIC ([4]; H6966/08, 24 h) [µM]	MIC ([4]; H6966/08, 48 h) [µM]	MIC [5, 11] [µM]	MIC [5, 12] [µM]	MIC ([6]; 14h) [µM]	MIC ([6]; 21h) [µM]	log k [7]	MIC ([8]; 24h) [µM]	MIC ([8]; 48h) [µM]	MIC ([9]; CCM4516, 24 h) [µM]	MIC ([9]; CCM4516, 48 h) [µM]	MIC ([10]; SP.J14365/08, 24 h) [µM]	MIC ([10]; SP.J14365/08, 48 h) [µM]	other results
C[C@@H](NC(=O)c1cc(Cl)ccc1O)C(=O)Nc1cccc(Cl)c1 [8c, 5-chloro-N-{(1R)-2-[(3-chlorophenyl)amino]-1-methyl-2-oxoethyl}-2-hydroxybenzamide]	> 500	> 500	125 (≈ 44.2 µg/mL)	250 (≈ 88.3 µg/mL)	62.5 (≈ 22.1 µg/mL)	125 (≈ 44.2 µg/mL)	> 500	> 500	0.49 (≈ 0.173 µg/mL)	0.49 (≈ 0.173 µg/mL)	62.5 (≈ 22.1 µg/mL)	62.5 (≈ 22.1 µg/mL)	0.41 and 0.4153	31.2 (≈ 11 µg/mL)	125 (≈ 44.2 µg/mL)	> 500	> 500	> 500	> 500	MIC ([5]; conclusions, incubation time not stated, read-out: antifungal activity against Trichophyton mentagrophytes (MIC)): 0.49 µM (≈ 0.173 µg/mL)
O=C(N[C@H](Cc1ccccc1)C(=O)Nc1cccc(Cl)c1)c1cc(Cl)ccc1O [8g, N-{(1S/R)-1-benzyl-2-[(3-chlorophenyl)amino]-2-oxoethyl}-5-chloro-2-hydroxybenzamide]	> 500	> 500	32 (≈ 13.7 µg/mL)	32 (≈ 13.7 µg/mL)	62.5 (≈ 26.8 µg/mL)	62.5 (≈ 26.8 µg/mL)	> 500	> 500	125 (≈ 53.7 µg/mL)	125 (≈ 53.7 µg/mL)	62.5 (≈ 26.8 µg/mL)	62.5 (≈ 26.8 µg/mL)	0.70 and 0.7066	31.2 (≈ 13.4 µg/mL)	125 (≈ 53.7 µg/mL)	> 500	> 500	> 500	> 500	–
C[C@@H](NC(=O)c1cc(Cl)ccc1O)C(=O)Nc1ccc(Cl)cc1 [8h]	> 500	> 500	125 (≈ 44.2 µg/mL)	125 (≈ 44.2 µg/mL)	8 (≈ 2.83 µg/mL)	16 (≈ 5.65 µg/mL)	> 500	> 500	> 125	> 125	125 (≈ 44.2 µg/mL)	250 (≈ 88.3 µg/mL)	0.4308	> 125	> 125	> 500	> 500	> 500	> 500	–
CC(C)[C@H](NC(=O)c1cc(Cl)ccc1O)C(=O)Nc1ccc(Cl)cc1 [8i]	15.6 (≈ 5.96 µg/mL)	15.6 (≈ 5.96 µg/mL)	62.5 (≈ 23.8 µg/mL)	62.5 (≈ 23.8 µg/mL)	32 (≈ 12.2 µg/mL)	32 (≈ 12.2 µg/mL)	31.2 (≈ 11.9 µg/mL)	250 (≈ 95.3 µg/mL)	> 125	> 125	62.5 (≈ 23.8 µg/mL)	62.5 (≈ 23.8 µg/mL)	0.6371	> 125	> 125	7.81 (≈ 2.98 µg/mL)	15.6 (≈ 5.96 µg/mL)	31.2 (≈ 11.9 µg/mL)	150 (≈ 57.2 µg/mL)	–
CC(C)[C@@H](NC(=O)c1cc(Cl)ccc1O)C(=O)Nc1ccc(Cl)cc1 [8j]	7.81 (≈ 2.98 µg/mL)	7.81 (≈ 2.98 µg/mL)	62.5 (≈ 23.8 µg/mL)	62.5 (≈ 23.8 µg/mL)	32 (≈ 12.2 µg/mL)	32 (≈ 12.2 µg/mL)	31.2 (≈ 11.9 µg/mL)	125 (≈ 47.7 µg/mL)	62.5 (≈ 23.8 µg/mL)	62.5 (≈ 23.8 µg/mL)	62.5 (≈ 23.8 µg/mL)	62.5 (≈ 23.8 µg/mL)	0.6125	> 125	> 125	7.81 (≈ 2.98 µg/mL)	7.81 (≈ 2.98 µg/mL)	250 (≈ 95.3 µg/mL)	500 (≈ 191 µg/mL)	MIC ([1]; read-out: activity against methicillin-resistant Staphylococcus aureus (MIC)): 7.81 µM (≈ 2.98 µg/mL)
O=C(CNC(=O)c1cc(Cl)ccc1O)Nc1ccc(Cl)c(Cl)c1 [8m]	> 125	> 125	62.5 (≈ 23.4 µg/mL)	500 (≈ 187 µg/mL)	125 (≈ 46.7 µg/mL)	500 (≈ 187 µg/mL)	> 125	> 125	> 125	> 125	125 (≈ 46.7 µg/mL)	500 (≈ 187 µg/mL)	0.4971	> 125	> 125	> 125	> 125	> 125	> 125	–
C[C@H](NC(=O)c1cc(Cl)ccc1O)C(=O)Nc1ccc(Cl)c(Cl)c1 [8n]	> 500	> 500	32 (≈ 12.4 µg/mL)	62.5 (≈ 24.2 µg/mL)	32 (≈ 12.4 µg/mL)	32 (≈ 12.4 µg/mL)	> 500	> 500	> 125	> 125	62.5 (≈ 24.2 µg/mL)	500 (≈ 194 µg/mL)	0.6698	> 125	> 125	> 500	> 500	> 500	> 500	–
CC(C)[C@H](NC(=O)c1cc(Cl)ccc1O)C(=O)Nc1ccc(Cl)c(Cl)c1 [8o]	> 500	> 500	62.5 (≈ 26 µg/mL)	125 (≈ 52 µg/mL)	32 (≈ 13.3 µg/mL)	32 (≈ 13.3 µg/mL)	> 500	> 500	> 125	> 125	32 (≈ 13.3 µg/mL)	62.5 (≈ 26 µg/mL)	0.8623	> 125	> 125	> 500	> 500	> 500	> 500	–
CC(C)[C@@H](NC(=O)c1cc(Cl)ccc1O)C(=O)Nc1ccc(Cl)c(Cl)c1 [8p]	> 500	> 500	62.5 (≈ 26 µg/mL)	125 (≈ 52 µg/mL)	16 (≈ 6.65 µg/mL)	32 (≈ 13.3 µg/mL)	> 500	> 500	> 125	> 125	32 (≈ 13.3 µg/mL)	62.5 (≈ 26 µg/mL)	0.8614	> 125	> 125	> 500	> 500	> 500	> 500	–
CC(C)[C@@H](NC(=O)c1cc(Cl)ccc1O)C(=O)Nc1ccc(Br)cc1 [8t]	> 125	> 125	62.5 (≈ 26.6 µg/mL)	62.5 (≈ 26.6 µg/mL)	62.5 (≈ 26.6 µg/mL)	62.5 (≈ 26.6 µg/mL)	> 125	> 125	> 125	> 125	62.5 (≈ 26.6 µg/mL)	125 (≈ 53.2 µg/mL)	0.6646	> 125	> 125	> 125	> 125	> 125	> 125	–
O=C(N[C@H](Cc1ccccc1)C(=O)Nc1ccc(Br)cc1)c1cc(Cl)ccc1O [8v]	7.81 (≈ 3.7 µg/mL)	15.6 (≈ 7.4 µg/mL)	250 (≈ 118 µg/mL)	250 (≈ 118 µg/mL)	32 (≈ 15.2 µg/mL)	32 (≈ 15.2 µg/mL)	62.5 (≈ 29.6 µg/mL)	125 (≈ 59.2 µg/mL)	500 (≈ 237 µg/mL)	> 500	32 (≈ 15.2 µg/mL)	32 (≈ 15.2 µg/mL)	0.7673	500 (≈ 237 µg/mL)	> 500	3.9 (≈ 1.85 µg/mL)	15.6 (≈ 7.4 µg/mL)	62.5 (≈ 29.6 µg/mL)	62.5 (≈ 29.6 µg/mL)	–
O=C(O)c1cn(C2CC2)c2cc(N3CCNCC3)c(F)cc2c1=O [CPF, ciprofloxacin, reference compound]	500 (≈ 166 µg/mL)	500 (≈ 166 µg/mL)	–	–	–	–	250 (≈ 82.8 µg/mL)	250 (≈ 82.8 µg/mL)	–	–	–	–	–	–	–	–	–	–	–	–
OC(Cn1cncn1)(Cn1cncn1)c1ccc(F)cc1F [FLU, fluconazole, reference compound]	–	–	–	–	–	–	–	–	1.95 (≈ 0.597 µg/mL)	3.91 (≈ 1.2 µg/mL)	–	–	–	0.12 (≈ 0.0368 µg/mL)	> 125	–	–	–	–	–
NNC(=O)c1ccncc1 [INH, isoniazid, reference compound]	–	–	> 250	> 250	0.5 (≈ 0.0686 µg/mL)	0.5 (≈ 0.0686 µg/mL)	–	–	–	–	> 250	> 250	–	–	–	–	–	–	–	–
CC1(C)S[C@@H]2[C@H](NC(=O)Cc3ccccc3)C(=O)N2[C@H]1C(=O)O [PEN, penicillin G, reference compound]	125 (≈ 41.8 µg/mL)	125 (≈ 41.8 µg/mL)	–	–	–	–	31.6 (≈ 10.6 µg/mL)	125 (≈ 41.8 µg/mL)	–	–	–	–	–	–	–	0.24 (≈ 0.0803 µg/mL)	0.24 (≈ 0.0803 µg/mL)	7.81 (≈ 2.61 µg/mL)	15.6 (≈ 5.22 µg/mL)	–

— paper PMC6259751, “Investigating Spectrum of Biological Activity of 4- and 5-Chloro-2-hydroxy-N-[2-(arylamino)-1-alkyl-2-oxoethyl]benzamides” (Molecules, 2011)
